Assays:
Conditions in all cases: 72 h
U2OS [1] = assay: drug sensitivity score (DSS) for viability; higher = more toxic; extreme values may be limits of the assay
Caco-2 [2] = assay: as above
HepG2 [3] = assay: as above
Calu-3 [4] = assay: as above
Vero E6 [5] = assay: as above
U2OS [6] = assay: cell viability relative to DMSO; higher = less toxic
Caco-2 [7] = assay: as above
HepG2 [8] = assay: as above
Calu-3 [9] = assay: as above
Vero E6 [10] = assay: as above
U2OS [11] = assay: relative viability EC50 (midpoint between 100% and the lowest measured viability); higher = less toxic
Caco-2 [12] = assay: as above
HepG2 [13] = assay: as above
Calu-3 [14] = assay: as above
Vero E6 [15] = assay: as above

| Structure (SMILES) | drug sensitivity score (U2OS [1]) | drug sensitivity score (Caco-2 [2]) | drug sensitivity score (HepG2 [3]) | drug sensitivity score (Calu-3 [4]) | drug sensitivity score (Vero E6 [5]) | cell viability (U2OS [6]; 1 nM) | cell viability (U2OS [6]; 10 nM) | cell viability (U2OS [6]; 100 nM) | cell viability (U2OS [6]; 1000 nM) | cell viability (U2OS [6]; 10000 nM) | cell viability (Caco-2 [7]; 1 nM) | cell viability (Caco-2 [7]; 10 nM) | cell viability (Caco-2 [7]; 100 nM) | cell viability (Caco-2 [7]; 1000 nM) | cell viability (Caco-2 [7]; 10000 nM) | cell viability (HepG2 [8]; 1 nM) | cell viability (HepG2 [8]; 10 nM) | cell viability (HepG2 [8]; 100 nM) | cell viability (HepG2 [8]; 1000 nM) | cell viability (HepG2 [8]; 10000 nM) | cell viability (Calu-3 [9]; 1 nM) | cell viability (Calu-3 [9]; 10 nM) | cell viability (Calu-3 [9]; 100 nM) | cell viability (Calu-3 [9]; 1000 nM) | cell viability (Calu-3 [9]; 10000 nM) | cell viability (Vero E6 [10]; 1 nM) | cell viability (Vero E6 [10]; 10 nM) | cell viability (Vero E6 [10]; 100 nM) | cell viability (Vero E6 [10]; 1000 nM) | cell viability (Vero E6 [10]; 10000 nM) | relative viability EC50 (U2OS [11]) | relative viability EC50 (Caco-2 [12]) | relative viability EC50 (HepG2 [13]) | relative viability EC50 (Calu-3 [14]) | relative viability EC50 (Vero E6 [15]) |
| --- | --- | --- | --- | --- | --- | --- | --- | --- | --- | --- | --- | --- | --- | --- | --- | --- | --- | --- | --- | --- | --- | --- | --- | --- | --- | --- | --- | --- | --- | --- | --- | --- | --- | --- | --- |
| CCC(=O)NC1CCc2cccc(OC)c2C1 (stereo not given) [8-M-PDOT] | 0 | 0 | 0 | 0 | 0 | 104% | 97.9% | 103% | 101% | 109% | 100% | 99.5% | 99.3% | 98.7% | 119% | 100% | 94.6% | 101% | 99.1% | 102% | 109% | 112% | 102% | 97.6% | 112% | 99.6% | 106% | 98.5% | 103% | 106% | > 10 µM | > 10 µM | > 10 µM | > 10 µM | > 10 µM |
| Nc1ncnc2c1ncn2[C@@H]1O[C@H](COP(=O)(O)OP(=O)(O)OP(=O)(O)O)[C@@H](O)[C@H]1O [ADENOSINE TRIPHOSPHATE DISODIUM] | 0 | 0 | 0 | 0 | 0 | 93.8% | 97.9% | 93.3% | 101% | 110% | 95.3% | 103% | 99.5% | 97.1% | 105% | 101% | 100% | 106% | 93.2% | 98.4% | 97% | 96.6% | 104% | 95.3% | 110% | 91.9% | 90.5% | 90.6% | 90.2% | 106% | > 10 µM | > 10 µM | > 10 µM | > 10 µM | > 10 µM |
| C=CC(=O)Nc1ccc2ncnc(Nc3ccc(OCc4cccc(F)c4)c(Cl)c3)c2c1 [AST-1306] | 9.8 | 8.3 | 4 | 22.6 | 11.3 | 91.4% | 72.7% | 91.5% | 61.3% | 23.4% | 93.4% | 105% | 83.3% | 80.6% | 6.1% | 102% | 96.7% | 107% | 92.8% | 48.2% | 98.9% | 80.4% | 40.4% | 32.3% | 4.3% | 99.8% | 97% | 83.7% | 51.8% | 17.7% | 0.665 µM | 1.72 µM | 2.06 µM | 0.0782 µM | 0.575 µM |

Source: the supplement of paper PMC13380429
